One series deals with T.b.b 427–221. Briefly: Live trypanosome fluorescence imaging. It is filed as cell-based, Trypanosoma brucei brucei. Conditions: 20 µM, 2 hours, washed, 1 hour compound-free medium. The protocol:
To explore the intracellular of distribution the coumarin-labeled derivative 30, parasites were incubated with 20 µM of 30 for 2 hours, washed once, and incubated in compound-free medium for 1 hour prior to microscopy. […] Although visualization of labeled merulin A in live cell imaging is an encouraging observation, further experiments are required to determine the precise localization and potential function of these compounds against T. brucei.
T.b.b 427–221 diluted to […] in complete HMI-9 medium were incubated with either 20 µM of compound 30, 20 µM of the free coumarin dye or 30 µM of compound 17 at 37°C for 2 hours. The parasites were then washed once with complete HMI-9 medium and incubated in compound-free complete HMI-9 medium for 1 additional hour. Parasites were directly mounted under coverslips and viewed with 100×-oil immersion on a Zeiss Laser Confocal microscope LSM 510 Meta.

The test system of series [1] is Trypanosoma brucei brucei strain 427–221. Briefly: Trypanosome screening assay (CellTiter-Glo ATP bioluminescence, 48 h). It is filed as cell-based. Particulars: Trypanosoma brucei. The method, then:
Trypanosoma brucei brucei strain 427–221 were grown at 37°C, 5% CO2 in HMI-9 medium containing 10% Fetal Bovine Serum, 10% Serum Plus (JRH Inc., Lenexa, KS,USA) and penicillin/streptomycin.
T.b.b. 427–221 were diluted to 2.10^4 per ml in complete HMI-9 medium and aliquoted in Greiner sterile 384-well flat white opaque culture plates using a WellMate cell dispenser from Matrix Tech. (Hudson, NH, USA). Test compounds were serially diluted in dimethyl sulfoxide (DMSO) and added to the assay plates with the robotic dispenser Biomek FXp liquid handler (Beckman Coulter). Thimerosal (2 µM final concentration) was added as a positive control and DMSO as a negative control (1% final concentration). Trypanosomes were incubated with compounds for 48 hours at 37°C with 5% CO2 before monitoring cell viability as previously described. Briefly, trypanosomes were lysed in the wells by adding 25 µL of CellTiter-GloTM (Promega). The lysed trypanosomes were placed on an orbital shaker at room temperature for 2 minutes. After lysis, the resulting ATP-bioluminescence was measured at room temperature using an Analyst HT plate reader (Molecular Devices). Percentage inhibition of parasite growth was calculated for each well as [1−(RLUx−RLU+)/(RLU−−RLU+)]*100 where RLUx, RLU+ and RLU− are respectively the Relative Light Units for each well, positive (thimerosal) and negative (DMSO) controls. A screening window coefficient, denoted Z′ factor, was used to evaluate the performance of the assay. The Z′ factor, calculated as 1−(3σc++3σc−)/(μc+−μc−) where σc+, σc−, μc+ and μc− are respectively the standard deviation and mean values of positive and negative controls, is reflective of the assay signal dynamic range and the data variation associated with signal measurement. IC50's were calculated using Prism (GraphPad).
(Cellular ATP, detected with luciferase, serves as a proxy for viable cell number.)

For series [2] the following is noted: treatment of second stage infection (CNS infection); estimated; cited from earlier work.
A further series relates to T98-G cells. Briefly: Glioblastoma toxicity screening assay (nuclei count by imaging, 17 h). It is filed as cell-based. Conditions: Homo sapiens, T98G; Figure 4. The method, then:
(§1) T98-G cells (ATTC number: CRL-1690) were plated at a density of 2,000 cells per well into two 384 well clear bottom plates (Costar 3712) in DMEM with 10% FBS. After 24 hours incubation at 37°C with 5% CO2 the cells were pinned with 200 nL of a two-fold serial dilution of merulin analogues. After 17 hours of treatment at 37°C in 5% CO2 the plates were fixed with 4% formaldehyde and washed with PBS (BioTek ELx405). After 10 minutes in PBS with 0.5% TritonX-100 each plate was washed and blocked with 2% Bovine Serum Albumin in PBS. Nuclei were stained with Hoechst 33342 then washed and placed in 40 µL of PBS with 0.1% sodium azide. Plates were imaged using the ImageXpress Micro epifluorescent scope (Molecular Devices). MetaXpress software was used to quantify total number of cells and IC50s were calculated using Prism (GraphPad).

The next series relates to HeLa cells. Briefly: HeLa toxicity screening assay (nuclei count by imaging, 17 h). It is filed as cell-based, human. Particulars: for IC50: Homo sapiens, HeLa. The method, then: as §1, with “HeLa” for “T98-G”, “cells” for “cells (ATTC number: CRL-1690)”
Setting [3] is: Figure 4, bloodstream form, read-out: T.b.b IC50.

Read-outs that look alike come from different tables or passages of the source. Bounds are passed on as bounds.

In general, IC50 refers to the concentration needed to halve the response being measured.

As for `CN(C)c1ccc2c(CC(=O)NCCNC(=O)CCc3ccccc3)cc(=O)oc2c1` [compound 31, N-(2-(2-(7-(dimethylamino)-2-oxo-2H-chromen-4-yl)acetamido)ethyl)-3-phenylpropanamide], in the series on T.b.b 427–221, the “fluorescence detected in live parasites” value was “No fluorescence was detected”.

As for `Nc1nc(N)nc(Nc2ccc([As]3SCC(CO)S3)cc2)n1` (stereo not drawn) [Melarsoprol, reference compound], the IC50 in series [1] (read-out: T.b.b IC50) came to 0.002 µM. In series [2], the “mortality rate due to drug-associated toxicity” value is reported as “three to ten”.

Consider `CN(C)c1ccc2c(CC(=O)O[C@@H]3CC[C@@]45C[C@@H]3OO[C@]4(C)C(=O)CCC5(C)C)cc(=O)oc2c1` [compound 30, (3S,4R,6aS,10aS)-7,7,10a-trimethyl-10-oxooctahydro-3H-3,6a-methanobenzo[c][1,2]dioxocin-4-yl 2-(7-(dimethylamino)-2-oxo-2H-chromen-4-yl)acetate], for which the IC50 is above 50 µM in the series on T98-G cells; 0.42 µM in series [1] (Table 3, read-out: T.b.b IC50); above 50 µM in the series on HeLa cells. Further, the SI with HeLa cells (HeLa vs T. brucei) is listed as above 125. In addition, in the series with T.b.b 427–221, the “fluorescence detected in live parasites” value is recorded as “Diffuse cytoplasmic fluorescent signal”.

In the case of `CC1(C)CCC(=O)[C@@]2(C)OO[C@H]3C[C@@]12CC[C@H]3OC(=O)c1ccno1` [compound 23, (3S,4R,6aS,10aS)-7,7,10a-trimethyl-10-oxooctahydro-3H-3,6a-methanobenzo[c][1,2]dioxocin-4-yl isoxazole-5-carboxylate], the IC50 in the series with T98-G cells is above 50 µM; in series [1] (setting [3]), 1.8 µM; in the series with HeLa cells (Figure 4), above 50 µM.

In the case of `CC1(C)CCC(=O)[C@@]2(C)OO[C@H]3C[C@@]12CC[C@H]3OC(=O)c1ccc(N2CCOCC2)cc1` [compound 24, (3S,4R,6aS,10aS)-7,7,10a-trimethyl-10-oxooctahydro-3H-3,6a-methanobenzo[c][1,2]dioxocin-4-yl 4-morpholinobenzoate], the IC50 was above 50 µM in the series on T98-G cells, 0.27 µM in series [1] (setting [3]) and 12 µM in the series with HeLa cells (Figure 4).

Regarding `CC1(C)CCC(=O)[C@@]2(C)OO[C@H]3C[C@@]12CC[C@H]3OC(=O)C1COc2ccccc2O1` (stereo partly drawn) [compound 12, (3S,4R,6aS,10aS)-7,7,10a-trimethyl-10-oxooctahydro-3H-3,6a-methanobenzo[c][1,2]dioxocin-4-yl 2,3-dihydrobenzo[b][1,4]dioxine-2-carboxylate], the IC50 with T98-G cells was above 50 µM; in series [1] (Table 3, read-out: T.b.b IC50), 0.06 µM; in the series with HeLa cells (Figure 4), above 50 µM.

For the compound `CC1(C)CCC(=O)[C@@]2(C)OO[C@@H]3C[C@@]12CC[C@H]3O` [compound 1, merulin A], the IC50 with T98-G cells is above 50 µM; in series [1] (Table 3, read-out: T.b.b IC50), 4 µM; in the series on HeLa cells (Figure 4), above 50 µM. Besides, the “fluorescence detected in live parasites” value with T.b.b 427–221 is “No fluorescence was detected”.

Consider `CC1(C)CCC(=O)[C@@]2(C)OO[C@H]3C[C@@]12CC[C@H]3OC(=O)c1cnc(Br)s1` [compound 19, (3S,4R,6aS,10aS)-7,7,10a-trimethyl-10-oxooctahydro-3H-3,6a-methanobenzo[c][1,2]dioxocin-4-yl 2-bromothiazole-5-carboxylate], for which the figures for the IC50 (in the series on T98-G cells; in series [1] (setting [3]); with HeLa cells (Figure 4)) were above 50 µM, 0.66 µM and 13 µM, respectively.

Turning to `CC1(C)CCC(=O)[C@@]2(C)OO[C@H]3C[C@@]12CC[C@H]3OC(=O)Cc1cccc2ccccc12` [compound 17, (3S,4R,6aS,10aS)-7,7,10a-trimethyl-10-oxooctahydro-3H-3,6a-methanobenzo[c][1,2]dioxocin-4-yl 2-(naphthalen-1-yl)acetate], the IC50 with T98-G cells was above 50 µM; in series [1] (bloodstream form, read-out: IC50 against T. brucei), 0.043 µM; with HeLa cells (Figure 4) it was 13 µM.

For the compound `CC1(C)CCC(=O)[C@@]2(C)OO[C@H]3C[C@@]12CC[C@H]3OC(=O)c1ccncc1` [compound 25, (3S,4R,6aS,10aS)-7,7,10a-trimethyl-10-oxooctahydro-3H-3,6a-methanobenzo[c][1,2]dioxocin-4-yl isonicotinate], the values for the IC50 (in the series on T98-G cells; in series [1] (setting [3]); in the series on HeLa cells (Figure 4)) were above 50 µM, 0.95 µM and above 50 µM, respectively.

The record behind these values is PMC3459870, “Hit-to-Lead Development of the Chamigrane Endoperoxide Merulin A for the Treatment of African Sleeping Sickness” (PLoS ONE, 2012).
